Measurements published in patent US9963482B2, “Phosphatidylinositol-3-kinase inhibitor and pharmaceutical composition” (Tohoku University, priority 2011, dated 2018).
pIC50: −log10 of the molar value. Where two headings read alike, the source gives them in different places. One block for each molecule: values may come before it.

What was measured:
PI3K (p110α/p85α) = molecular target: T1, PI3K (p110α/p85α) (Homo sapiens, UniProt P42336); assay: In vitro PI3K inhibitory activity by mobility shift assay (Carna Biosciences); assay type: biochemical; conditions: for PI3K activity inhibitory rate: compound 20 μM, 50 μM ATP
T1 construct: purchased Carna Biosciences, Inc. (Kobe); contract measurement
T1 sequence (P42336 whole entry): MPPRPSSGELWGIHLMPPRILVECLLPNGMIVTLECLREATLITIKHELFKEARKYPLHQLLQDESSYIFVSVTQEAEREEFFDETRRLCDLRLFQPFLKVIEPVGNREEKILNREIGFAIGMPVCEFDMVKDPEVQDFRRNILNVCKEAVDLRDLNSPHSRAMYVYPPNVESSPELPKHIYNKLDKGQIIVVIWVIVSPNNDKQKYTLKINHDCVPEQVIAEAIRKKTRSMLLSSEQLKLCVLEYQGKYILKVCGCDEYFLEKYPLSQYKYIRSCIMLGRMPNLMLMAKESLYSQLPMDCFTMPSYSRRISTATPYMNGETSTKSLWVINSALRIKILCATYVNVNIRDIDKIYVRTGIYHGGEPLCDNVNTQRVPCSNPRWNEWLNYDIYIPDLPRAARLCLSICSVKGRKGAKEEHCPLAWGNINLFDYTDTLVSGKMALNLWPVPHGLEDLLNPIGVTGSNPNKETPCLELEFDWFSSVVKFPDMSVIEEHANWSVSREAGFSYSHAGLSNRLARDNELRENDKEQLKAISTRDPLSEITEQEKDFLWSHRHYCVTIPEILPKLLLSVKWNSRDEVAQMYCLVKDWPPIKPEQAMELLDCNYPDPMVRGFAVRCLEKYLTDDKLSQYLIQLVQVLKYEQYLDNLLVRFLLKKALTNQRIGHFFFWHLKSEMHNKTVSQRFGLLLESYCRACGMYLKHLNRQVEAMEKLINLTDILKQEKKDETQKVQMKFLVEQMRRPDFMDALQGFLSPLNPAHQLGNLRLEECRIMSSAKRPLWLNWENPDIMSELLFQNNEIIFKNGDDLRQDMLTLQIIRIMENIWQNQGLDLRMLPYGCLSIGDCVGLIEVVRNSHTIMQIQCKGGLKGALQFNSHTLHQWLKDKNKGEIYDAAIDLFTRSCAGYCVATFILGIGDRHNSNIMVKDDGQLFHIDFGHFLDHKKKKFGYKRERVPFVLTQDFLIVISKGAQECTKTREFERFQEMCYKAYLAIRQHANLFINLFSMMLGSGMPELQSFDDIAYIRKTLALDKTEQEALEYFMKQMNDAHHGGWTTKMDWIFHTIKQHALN
T1 sequence (P27986 whole entry partner): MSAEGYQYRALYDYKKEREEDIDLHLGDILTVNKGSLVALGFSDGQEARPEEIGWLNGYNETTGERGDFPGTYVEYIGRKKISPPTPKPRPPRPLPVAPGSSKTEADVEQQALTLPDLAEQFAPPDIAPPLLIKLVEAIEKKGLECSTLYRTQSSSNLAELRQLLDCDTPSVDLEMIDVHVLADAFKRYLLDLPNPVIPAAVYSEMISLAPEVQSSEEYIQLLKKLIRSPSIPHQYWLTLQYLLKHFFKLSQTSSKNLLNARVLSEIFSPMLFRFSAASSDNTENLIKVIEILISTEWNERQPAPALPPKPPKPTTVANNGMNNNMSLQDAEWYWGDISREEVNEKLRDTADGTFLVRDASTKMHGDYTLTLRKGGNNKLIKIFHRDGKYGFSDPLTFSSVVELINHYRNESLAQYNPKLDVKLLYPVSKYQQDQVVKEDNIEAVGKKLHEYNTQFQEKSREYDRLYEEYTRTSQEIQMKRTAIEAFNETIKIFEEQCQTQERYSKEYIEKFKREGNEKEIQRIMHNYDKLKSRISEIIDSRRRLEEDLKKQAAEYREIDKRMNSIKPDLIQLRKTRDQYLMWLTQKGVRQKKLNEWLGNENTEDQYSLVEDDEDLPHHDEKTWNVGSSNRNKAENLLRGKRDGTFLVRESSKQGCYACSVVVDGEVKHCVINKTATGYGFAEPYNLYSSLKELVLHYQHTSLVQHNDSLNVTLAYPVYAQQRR
Method: The PI3K (p110α/p85α) inhibitory activity was evaluated at Carna Biosciences, Inc. (Kobe) by mobility shift assay which included isolation and quantification of a substrate and the phosphorylated substrate based on the mobility in a capillary (https://www.carnabio.com/japanese/product/search.cgi?mode=profiling). […] After allowing the reaction to occur for 5 hours at room temperature, the mobility shift assay was performed. The test was performed in duplicate.
Inhibition rate was calculated as follows.
The value of product/substrate+product when an agent was added thereto was calculated similarly, and the inhibition rate was calculated based on a difference from the control value.

[1] = system: AKT pathway in PC3 (prostate cancer) cells; assay: AKT pathway inhibition by Western blotting in PC3 cells; assay type: cell-based, human; conditions: for expression level of phosphorylated AKT (Ser-473, Thr-308) over time: 5 to 180 minutes
Method: PC3 cells were obtained from Cell Resource Center for Medical Research of Institute of Development, Aging, and Cancer, Tohoku University. The cells were cultured at 37° C. in the presence of 5% CO2 by using RPMI1640 medium containing inactivated fetal bovine serum at the concentration of 10%.
Western blotting was performed as follows. Various kinds of the cells treated with each compound were collected and lysed in a lysis buffer (500 mM Tris-HCl pH 7.5, 100 mM NaCl, 2 mM EDTA, 1 mM sodium orthovanadate, 1% NP-40, and 1% protease inhibitor cocktail, manufactured by SIGMA-ALDRICH). After centrifugation, the supernatants were collected.
The followings were used as primary antibodies.
As a secondary antibody, “Alexa Fluor680IgG” (trade name, manufactured by Invitrogen) was used. By using “Odyssey Infrared Imaging System” (trade name, manufactured by LI-COR), expression of the protein of interest was determined.

[2] = molecular target: T2, human p110α expressed in budding yeast (Homo sapiens, UniProt P42336); assay: Screening of PI3K inhibitor using budding yeast (recovery from cell proliferation disorder caused by p110α); assay type: cell-based; conditions: AD1-9 transformant expressing p110α, compound 5 μM, 24 hours, average of three tests
T2 construct: expressed in transfected cells; host or cells: Saccharomyces cerevisiae AD1-9 (LEU2-disrupted), galactose-induced
T2 sequence (P42336 whole entry): as the sequence (P42336 whole entry) above
Method: AD1-9 strain can be obtained from Nader Nourizad (Stanford Genome Technology Center Stanford University, CA, USA).
The transformed AD 1-9 strain was cultured at 30° C. in a minimal complete medium SC-U-L containing no uracil and leucine or SGal-U-L in which 2% glucose was replaced with 2% galactose.
By using the aforementioned system, screening of the compound library, which was obtained from the Screening committee of anticancer drugs supported by grant-in-aid for scientific research on priority area “Cancer” from Ministry of Education, Culture, Sports, Science, and Technology, Japan, was performed. Each compound was added to SGal-U-L liquid medium to constitute a concentration of 0.5 μM or 5 μM and the transformant of AD 1-9 was cultured for 24 hours under shaking. Thereafter, A600 was measured. […] Three independent tests were repeatedly performed to calculate the average value of A600.

HCT116 cells [3] = assay: Western blotting for apoptosis, AKT and histone acetylation in HCT116 cells; assay type: cell-based, human; conditions: HCT116, 24 hours, 5 μM
Method: With regard to Western blotting, HCT116 cells were treated for 24 hours with SAHA or FK-228 at predetermined concentrations, and then the expression of PARP, cleaved PARP, phosphorylated AKT (S473), AKT, acetylated histone H3, and acetylated histone H4 was analyzed.

HCT116 cells [4] = assay: FACS cell cycle analysis in HCT116 cells; assay type: cell-based, human; conditions: HCT116, 24 hours; SAHA 2.5 μM, LY294002 50 μM, FK228 or FK-A5 at low concentration
Method: The cells were collected, fixed with ethanol, stained with iodopropidium/PBS solution, and analyzed by using “Cytomics FC500 Flow Cytometry System” (trade name, manufactured by Beckman Coulter). The cell cycle fractions were calculated by using “Multicycle software” (trade name, manufactured by Phenomix Flow Systems).

HDAC6 = molecular target: T3, HDAC6 (Homo sapiens, UniProt Q9UBN7); conditions: Table 2; cited from earlier work
T3 sequence (Q9UBN7 1-1215): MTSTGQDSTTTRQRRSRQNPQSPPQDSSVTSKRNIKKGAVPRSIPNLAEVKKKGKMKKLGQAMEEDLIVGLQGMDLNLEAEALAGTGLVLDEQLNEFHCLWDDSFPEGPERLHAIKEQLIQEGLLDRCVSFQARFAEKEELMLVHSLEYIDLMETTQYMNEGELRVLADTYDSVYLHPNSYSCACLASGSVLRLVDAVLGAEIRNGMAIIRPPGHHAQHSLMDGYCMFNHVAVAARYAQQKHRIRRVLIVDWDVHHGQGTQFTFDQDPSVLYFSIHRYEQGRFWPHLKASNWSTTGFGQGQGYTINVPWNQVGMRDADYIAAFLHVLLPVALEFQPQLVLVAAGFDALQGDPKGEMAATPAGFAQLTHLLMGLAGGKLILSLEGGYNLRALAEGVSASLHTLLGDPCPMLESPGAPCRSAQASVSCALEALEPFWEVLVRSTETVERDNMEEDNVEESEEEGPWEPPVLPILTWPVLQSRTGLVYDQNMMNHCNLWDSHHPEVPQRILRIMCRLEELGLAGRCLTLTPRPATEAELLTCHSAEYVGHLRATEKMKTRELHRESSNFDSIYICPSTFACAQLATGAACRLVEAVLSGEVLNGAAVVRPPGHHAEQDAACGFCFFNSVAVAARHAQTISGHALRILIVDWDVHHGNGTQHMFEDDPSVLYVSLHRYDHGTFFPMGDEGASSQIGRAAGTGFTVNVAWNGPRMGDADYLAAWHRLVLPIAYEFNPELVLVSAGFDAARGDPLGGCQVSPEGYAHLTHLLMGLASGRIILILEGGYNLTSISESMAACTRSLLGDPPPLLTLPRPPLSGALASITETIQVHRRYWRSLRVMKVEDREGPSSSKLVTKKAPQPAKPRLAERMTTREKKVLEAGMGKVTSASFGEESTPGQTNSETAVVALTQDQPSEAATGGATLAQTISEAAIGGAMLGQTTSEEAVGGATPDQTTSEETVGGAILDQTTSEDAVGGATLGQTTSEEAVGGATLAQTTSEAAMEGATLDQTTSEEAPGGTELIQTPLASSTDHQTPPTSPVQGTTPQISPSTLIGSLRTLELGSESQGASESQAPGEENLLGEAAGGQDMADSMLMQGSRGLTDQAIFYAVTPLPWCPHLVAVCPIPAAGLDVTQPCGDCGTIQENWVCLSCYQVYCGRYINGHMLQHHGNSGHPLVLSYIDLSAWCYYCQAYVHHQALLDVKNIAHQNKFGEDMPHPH

HDAC1 = HDAC1 (Homo sapiens, UniProt Q13547); conditions: Table 2; cited from earlier work
Chain of HDAC1 (Q13547 whole entry, species assumed): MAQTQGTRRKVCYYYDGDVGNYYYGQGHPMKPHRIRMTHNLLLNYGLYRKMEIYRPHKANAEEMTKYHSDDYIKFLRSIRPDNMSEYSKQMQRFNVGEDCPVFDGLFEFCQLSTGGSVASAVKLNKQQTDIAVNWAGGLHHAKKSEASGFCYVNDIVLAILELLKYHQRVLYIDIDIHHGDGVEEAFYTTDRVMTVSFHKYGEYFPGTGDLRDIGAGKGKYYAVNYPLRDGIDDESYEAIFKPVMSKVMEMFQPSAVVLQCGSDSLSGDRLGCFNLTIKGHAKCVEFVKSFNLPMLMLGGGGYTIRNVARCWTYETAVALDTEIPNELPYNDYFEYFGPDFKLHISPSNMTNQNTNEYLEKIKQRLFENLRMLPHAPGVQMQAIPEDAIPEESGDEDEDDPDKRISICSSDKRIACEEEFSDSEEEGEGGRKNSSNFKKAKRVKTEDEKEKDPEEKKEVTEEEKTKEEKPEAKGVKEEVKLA

[5] = Table 3, PI3K (p110α/p85α), read-out: PI3K IC50

SMILES: C/C=C1\NC(=O)[C@H]2CSSCC/C=C/[C@H](CC(=O)N[C@H](C(C)C)C(=O)N2)OC(=O)[C@H](C(C)C)NC1=O [FK228, romidepsin]
pIC50 (PI3K (p110α/p85α); high ATP concentration (500 μM), read-out: IC50 for PI3K): 3.90
inhibition at 10 µM (PI3K (p110α/p85α); read-out: inhibition rate in the PI3K inhibition curve): 6.5%
pIC50 (PI3K (p110α/p85α); standard ATP concentration (50 μM), read-out: IC50 for PI3K): 4.24
expression level of phosphorylated AKT (Ser-473, Thr-308) over time ([1]; 10 μM): lowered the expression level of phosphorylated AKT (Ser-473, Thr-308)
lowering of expression level of phosphorylated AKT (S473) compared to control ([1]; 10 μM, 180 minutes): 66%
lowering of expression level of phosphorylated AKT (T308) compared to control ([1]; 10 μM, 180 minutes): 86%
phosphorylated ERK1/2 ([1]; 180 minutes): slightly inhibited
phosphorylated MEK1/2 ([1]; 180 minutes): not inhibited
expression levels of phosphorylated AKT, GSK-3β, mTOR, p70S6K and 4E-BP1 ([1]; 180 minutes, varying concentration): inhibited in a concentration dependent manner
A600 [2]: 0.385
Cleaved PARP (HCT116 cells [3]): increased most
expression of acetylated histone (HCT116 cells [3]): enhanced the expression of acetylated histone
phosphorylated AKT (HCT116 cells [3]): inhibited the phosphorylated AKT
cell cycle arrest (HCT116 cells [4]): induced cell cycle arrest, predominantly at G2/M phase

SMILES: C/C=C1\NC(=O)C2CSSCC/C=C/C(CC(=O)N[C@H](C(C)C)C(=O)N2)OC(=O)CNC1=O (some centres unmarked) [FK-A1]
pIC50 (HDAC6): 5.49
pIC50 (HDAC1): 8.11

SMILES: CC(C)C1NC(=O)CC2/C=C/CCSSCC(NC1=O)C(=O)NCC(=O)NCC(=O)O2 (centres unmarked) [FK-A2]
pIC50 (HDAC6): 5.32
pIC50 (HDAC1): 7.35

SMILES: CC(C)C1NC(=O)CC2/C=C/CCSSCC(NC1=O)C(=O)N[C@H](C)C(=O)NCC(=O)O2 (some centres unmarked) [FK-A3]
pIC50 (HDAC6): 5.49
PI3K activity inhibitory rate (PI3K (p110α/p85α)): higher inhibition rate than FK228
A600 [2]: 0.380
pIC50 (HDAC1): 8.38

SMILES: CC(C)[C@H]1NC(=O)CC2/C=C/CCSSCC(NC1=O)C(=O)N[C@@H](C)C(=O)NCC(=O)O2 (some centres unmarked) [FK-A4]
pIC50 (HDAC6): 5.68
pIC50 (HDAC1): 6.47

PI3K activity inhibitory rate (PI3K (p110α/p85α)): higher inhibition rate than FK228
SMILES: CC(C)[C@H]1NC(=O)CC2/C=C/CCSSCC(NC1=O)C(=O)N[C@@H](Cc1ccccc1)C(=O)NCC(=O)O2 (some centres unmarked) [FK-A6]
pIC50 (HDAC6): 5.54
pIC50 (HDAC1): 7.72

pIC50 (PI3K (p110α/p85α); [5]): 4.49
SMILES: CC(C)C[C@H]1NC(=O)C2CSSCC/C=C/C(CC(=O)N[C@H](C(C)C)C(=O)N2)OC(=O)CNC1=O (some centres unmarked) [FK-A7]

pIC50 (PI3K (p110α/p85α); [5]): 4.35
SMILES: CC(C)C[C@@H]1NC(=O)C2CSSCC/C=C/C(CC(=O)N[C@H](C(C)C)C(=O)N2)OC(=O)CNC1=O (some centres unmarked) [FK-A8]

pIC50 (PI3K (p110α/p85α); [5]): 4.85
SMILES: CC(C)[C@H]1NC(=O)CC2/C=C/CCSSCC(NC1=O)C(=O)N[C@H](Cc1ccc(O)cc1)C(=O)NCC(=O)O2 (some centres unmarked) [FK-A9]

pIC50 (PI3K (p110α/p85α); [5]): 4.57
SMILES: COc1ccc(C[C@H]2NC(=O)C3CSSCC/C=C/C(CC(=O)N[C@H](C(C)C)C(=O)N3)OC(=O)CNC2=O)cc1 (some centres unmarked) [FK-A10]

pIC50 (PI3K (p110α/p85α); [5]): 5.14
SMILES: CC(C)[C@H]1NC(=O)CC2/C=C/CCSSCC(NC1=O)C(=O)N[C@@H](Cc1cccc3ccccc13)C(=O)NCC(=O)O2 (some centres unmarked) [FK-A12]

pIC50 (PI3K (p110α/p85α); [5]): 5.07
SMILES: CC(C)[C@H]1NC(=O)CC2/C=C/CCSSCC(NC1=O)C(=O)N[C@H](Cc1ccc3ccccc3c1)C(=O)NCC(=O)O2 (some centres unmarked) [FK-A13]

pIC50 (PI3K (p110α/p85α); [5]): 4.69
SMILES: CC(C)[C@H]1NC(=O)CC2/C=C/CCSSCC(NC1=O)C(=O)N[C@H](Cc1ccc(F)cc1)C(=O)NCC(=O)O2 (some centres unmarked) [FK-A17]

A600 [2]: 0.482
SMILES: O=c1cc(N2CCOCC2)oc2c(-c3ccccc3)cccc12 [LY294002]
expression level of phosphorylated AKT (Ser-473, Thr-308) over time ([1]; 10 μM): lowered the expression level of phosphorylated AKT (Ser-473, Thr-308)
cell cycle arrest (HCT116 cells [4]): induced arrest of G0/G1 phase

SMILES: O=C(CCCCCCC(=O)Nc1ccccc1)NO [SAHA, suberoyl anilide hydroxamic acid]
cell cycle arrest (HCT116 cells [4]): induced arrest of G2/M phase

A600 [2]: 0.412
SMILES: CC(C)C1NC(=O)C2CSSCC/C=C/C(CC(=O)N[C@H](C)C(=O)N2)OC(=O)C[C@@H]1O (some centres unmarked) [SP-1, spiruchostatin A]
pIC50 (HDAC6): 5.80
pIC50 (HDAC1): 8.48

SMILES: CC[C@H](C)C1NC(=O)C2CSSCC/C=C/C(CC(=O)N[C@H](C)C(=O)N2)OC(=O)C[C@@H]1O (some centres unmarked) [SP-2, spiruchastatin B]
pIC50 (HDAC6): 5.85
pIC50 (HDAC1): 8.66

A600 [2]: 0.464
SMILES: CC[C@@H](C)C1NC(=O)C2CSSCC/C=C/C(CC(=O)N[C@H](C)C(=O)N2)OC(=O)C[C@@H]1O (stereo partly drawn) [SP-3, 5″-epi-spiruchostatin B]
pIC50 (HDAC6): 5.41
pIC50 (HDAC1): 8.62

PI3K activity inhibitory rate (PI3K (p110α/p85α)): higher inhibition rate than FK228
SMILES: CC(C)[C@H]1NC(=O)C2CSSCC/C=C/C(CC(=O)N[C@H](C(C)C)C(=O)N2)OC(=O)C[C@@H]1O (some centres unmarked) [SP-5, spiruchostatin D]
